Starred links: 1 amine or outer side, 2 acyl side, 3 side chain; linkers in the order of their positions; H or OH if unused. Non-standard residues stand in square brackets, D forms with d. Residues, ends and D or L forms follow the SMILES beside them. Groups on a side chain read outwards from the residue. *: point of attachment. C20 diacid = O=C(O)CCCCCCCCCCCCCCCCCCC(=O)*; γGlu = O=C(O)[C@H](CCC(=O)[*:2])N[*:1]; AEEA = NCCOCCOCC(=O)O; Aib = CC(C)(N)C(=O)O
Test: Body weight of diet-induced-obesity mice after subcutaneous administration
Type: in vivo, C57BL/6 mice
Conditions: for rate of body weight change: DIO mice
Protocol: High-fat food-induced-obesity male C57BL/6 mice (weighing 35-55 g, aged 10-12 weeks, purchased from Shanghai Jiesijie Laboratory Animal Co., Ltd.) were tested. […] According to the experimental design, the body weight of each mouse was measured and recorded on day 0, day 3, day 6, and so on to day 27, the average body weight of each group of mice was calculated, and body weight change curves were plotted by taking the body weight on the first day as the standard. At the end, the fat and other visceral organs of each part of the mice were taken out and weighed, and the viscera/brain ratio for fat in each part of each mouse was calculated. The effect of the drug on the fat was determined by comparing the change in the viscera/brain ratio for fat of different parts of each group of mice.

CC[C@H](C)[C@H](NC(=O)[C@H](CCCCN)NC(=O)[C@H](CCC(=O)O)NC(=O)[C@H](CCCCNC(=O)COCCOCCNC(=O)COCCOCCNC(=O)CC[C@H](NC(=O)CCCCCCCCCCCCCCCCCCC(=O)O)C(=O)O)NC(=O)[C@H](Cc1ccc(O)cc1)NC(=O)[C@@H](NC(=O)[C@H](CO)NC(=O)[C@H](Cc1ccc(O)cc1)NC(=O)[C@H](CC(=O)O)NC(=O)[C@H](CO)NC(=O)[C@@H](NC(=O)[C@H](Cc1ccccc1)NC(=O)[C@@H](NC(=O)CNC(=O)[C@H](CCC(=O)O)NC(=O)C(C)(C)NC(=O)[C@@H](N)Cc1ccc(O)cc1)[C@@H](C)O)[C@@H](C)O)[C@@H](C)CC)C(=O)N[C@@H](C)C(=O)N[C@@H](C)C(=O)N[C@@H](CCC(N)=O)C(=O)N[C@@H](CCC(=O)O)C(=O)N[C@@H](Cc1ccccc1)C(=O)N[C@H](C(=O)N[C@@H](CC(N)=O)C(=O)N[C@@H](Cc1c[nH]c2ccccc12)C(=O)N[C@@H](CC(C)C)C(=O)N[C@@H](CC(C)C)C(=O)N[C@@H](C)C(=O)NCC(=O)NCC(=O)N1CCC[C@H]1C(=O)N[C@@H](CO)C(=O)N[C@@H](CO)C(=O)NCC(=O)N[C@@H](C)C(=O)N1CCC[C@H]1C(=O)N1CCC[C@H]1C(=O)N1CCC[C@H]1C(=O)N[C@@H](CO)C(N)=O)C(C)C [Compound 18#] (H-Y[Aib]EGTFTSDYSIYK([AEEA-AEEA-γGlu-C20 diacid])EKIAAQEFVNWLLAGGPSSGAPPPS-NH2)
rate of body weight change (3 nmol/kg s.c. every 3 days, day 0 (before administration)): 0% | rate of body weight change (3 nmol/kg s.c. every 3 days, day 1): −5% | rate of body weight change (3 nmol/kg s.c. every 3 days, day 2): −6.3% | rate of body weight change (3 nmol/kg s.c. every 3 days, day 3): −5.8% | rate of body weight change (3 nmol/kg s.c. every 3 days, day 4): −9.1% | rate of body weight change (3 nmol/kg s.c. every 3 days, day 5): −10.3% | rate of body weight change (3 nmol/kg s.c. every 3 days, day 6): −10% | rate of body weight change (3 nmol/kg s.c. every 3 days, day 7): −13% | rate of body weight change (3 nmol/kg s.c. every 3 days, day 8): −13.9% | rate of body weight change (3 nmol/kg s.c. every 3 days, day 9): −13.9% | rate of body weight change (3 nmol/kg s.c. every 3 days, day 10): −16.6% | rate of body weight change (3 nmol/kg s.c. every 3 days, day 11): −16.4% | rate of body weight change (3 nmol/kg s.c. every 3 days, day 12): −15.7% | rate of body weight change (3 nmol/kg s.c. every 3 days, day 13): −18.2% | rate of body weight change (3 nmol/kg s.c. every 3 days, day 14): −17.1% | rate of body weight change (3 nmol/kg s.c. every 3 days, day 15): −15.7% | rate of body weight change (3 nmol/kg s.c. every 3 days, day 16): −18.6% | rate of body weight change (3 nmol/kg s.c. every 3 days, day 17): −18.3% | rate of body weight change (3 nmol/kg s.c. every 3 days, day 18): −17.9% | rate of body weight change (3 nmol/kg s.c. every 3 days, day 19): −20.5% | rate of body weight change (3 nmol/kg s.c. every 3 days, day 20): −19.8% | rate of body weight change (3 nmol/kg s.c. every 3 days, day 21): −17.8% | rate of body weight change (3 nmol/kg s.c. every 3 days, day 22): −19.3% | rate of body weight change (3 nmol/kg s.c. every 3 days, day 23): −19.1% | rate of body weight change (3 nmol/kg s.c. every 3 days, day 24): −17.3% | rate of body weight change (3 nmol/kg s.c. every 3 days, day 25): −19.9% | rate of body weight change (3 nmol/kg s.c. every 3 days, day 26): −18.8% | rate of body weight change (3 nmol/kg s.c. every 3 days, day 27): −16.1% | rate of body weight change (3 nmol/kg s.c. every 3 days, day 28): −19.2% | rate of body weight change (10 nmol/kg s.c. every 3 days, day 0 (before administration)): 0% | rate of body weight change (10 nmol/kg s.c. every 3 days, day 1): −6.2% | rate of body weight change (10 nmol/kg s.c. every 3 days, day 2): −8.6% | rate of body weight change (10 nmol/kg s.c. every 3 days, day 3): −9.4% | rate of body weight change (10 nmol/kg s.c. every 3 days, day 4): −12.7% | rate of body weight change (10 nmol/kg s.c. every 3 days, day 5): −14.5% | rate of body weight change (10 nmol/kg s.c. every 3 days, day 6): −15% | rate of body weight change (10 nmol/kg s.c. every 3 days, day 7): −18.3% | rate of body weight change (10 nmol/kg s.c. every 3 days, day 8): −20.1% | rate of body weight change (10 nmol/kg s.c. every 3 days, day 9): −20.3% | rate of body weight change (10 nmol/kg s.c. every 3 days, day 10): −23.4% | rate of body weight change (10 nmol/kg s.c. every 3 days, day 11): −23.9% | rate of body weight change (10 nmol/kg s.c. every 3 days, day 12): −23.5% | rate of body weight change (10 nmol/kg s.c. every 3 days, day 13): −26.4% | rate of body weight change (10 nmol/kg s.c. every 3 days, day 14): −25.1% | rate of body weight change (10 nmol/kg s.c. every 3 days, day 15): −23.4% | rate of body weight change (10 nmol/kg s.c. every 3 days, day 16): −26.6% | rate of body weight change (10 nmol/kg s.c. every 3 days, day 17): −25.7% | rate of body weight change (10 nmol/kg s.c. every 3 days, day 18): −24.6% | rate of body weight change (10 nmol/kg s.c. every 3 days, day 19): −27.5% | rate of body weight change (10 nmol/kg s.c. every 3 days, day 20): −27.3% | rate of body weight change (10 nmol/kg s.c. every 3 days, day 21): −24.8% | rate of body weight change (10 nmol/kg s.c. every 3 days, day 22): −28.1% | rate of body weight change (10 nmol/kg s.c. every 3 days, day 23): −27.1% | rate of body weight change (10 nmol/kg s.c. every 3 days, day 24): −26% | rate of body weight change (10 nmol/kg s.c. every 3 days, day 25): −28.5% | rate of body weight change (10 nmol/kg s.c. every 3 days, day 26): −27.8% | rate of body weight change (10 nmol/kg s.c. every 3 days, day 27): −24.8% | rate of body weight change (10 nmol/kg s.c. every 3 days, day 28): −28.2% | rate of body weight change (100 nmol/kg s.c. every 3 days, day 0 (before administration)): 0% | rate of body weight change (100 nmol/kg s.c. every 3 days, day 1): −6.3% | rate of body weight change (100 nmol/kg s.c. every 3 days, day 2): −10.9% | rate of body weight change (100 nmol/kg s.c. every 3 days, day 3): −13.2% | rate of body weight change (100 nmol/kg s.c. every 3 days, day 4): −15.7% | rate of body weight change (100 nmol/kg s.c. every 3 days, day 5): −19.2% | rate of body weight change (100 nmol/kg s.c. every 3 days, day 6): −21.8% | rate of body weight change (100 nmol/kg s.c. every 3 days, day 7): −24.7% | rate of body weight change (100 nmol/kg s.c. every 3 days, day 8): −27.6% | rate of body weight change (100 nmol/kg s.c. every 3 days, day 9): −29.6% | rate of body weight change (100 nmol/kg s.c. every 3 days, day 10): −31.6% | rate of body weight change (100 nmol/kg s.c. every 3 days, day 11): −33.7% | rate of body weight change (100 nmol/kg s.c. every 3 days, day 12): −34.4% | rate of body weight change (100 nmol/kg s.c. every 3 days, day 13): −35.6% | rate of body weight change (100 nmol/kg s.c. every 3 days, day 14): −36.7% | rate of body weight change (100 nmol/kg s.c. every 3 days, day 15): −35.7% | rate of body weight change (100 nmol/kg s.c. every 3 days, day 17): −38.2% | rate of body weight change (100 nmol/kg s.c. every 3 days, day 18): −37.8% | rate of body weight change (100 nmol/kg s.c. every 3 days, day 19): −38.5% | rate of body weight change (100 nmol/kg s.c. every 3 days, day 20): −39% | rate of body weight change (100 nmol/kg s.c. every 3 days, day 21): −37.4% | rate of body weight change (100 nmol/kg s.c. every 3 days, day 22): −38.3% | rate of body weight change (100 nmol/kg s.c. every 3 days, day 23): −38% | rate of body weight change (100 nmol/kg s.c. every 3 days, day 24): −36.8% | rate of body weight change (100 nmol/kg s.c. every 3 days, day 25): −38.6% | rate of body weight change (100 nmol/kg s.c. every 3 days, day 26): −38.9% | rate of body weight change (100 nmol/kg s.c. every 3 days, day 27): −36.8% | rate of body weight change (100 nmol/kg s.c. every 3 days, day 28): −37.9% | body weight reduced (high-fat food-induced-obesity mice, 10 nmol/kg, day 27): more than 20.0%

Source: patent US20260014232A1, “Pharmaceutical Composition of GLP-1 and GIP Receptor Dual Agonist and Use Thereof” (Jiangsu Hengrui Pharmaceuticals Co., Ltd., priority 2021, published 2026)
